Data: patent US4644006A, “Substituted 3,4-diamino-1,2,5-thiadiazoles having histamine H2 -receptor antagonist activity” (Bristol-Myers Company, priority 1984, dated 1987)
Like-named read-outs stand apart in the source and are kept apart here.

Tests used:
[1] = target: T1, histamine H2-receptors (isolated guinea pig right atria) (Cavia porcellus, UniProt P47747); assay: Histamine H2-receptor antagonism, isolated guinea pig right atria assay; set-up: estimated dissociation constant KB: unit not given here; conditions: for effect on histamine or dimaprit dose-response curves: at the concentrations utilized, 30-minute incubation
T1 construct: The spontaneously beating right atrium was dissected free from other tissues; from tissue; host or cells: isolated spontaneously beating right atrium of male Hartley guinea pigs
T1 sequence (P47747 whole entry): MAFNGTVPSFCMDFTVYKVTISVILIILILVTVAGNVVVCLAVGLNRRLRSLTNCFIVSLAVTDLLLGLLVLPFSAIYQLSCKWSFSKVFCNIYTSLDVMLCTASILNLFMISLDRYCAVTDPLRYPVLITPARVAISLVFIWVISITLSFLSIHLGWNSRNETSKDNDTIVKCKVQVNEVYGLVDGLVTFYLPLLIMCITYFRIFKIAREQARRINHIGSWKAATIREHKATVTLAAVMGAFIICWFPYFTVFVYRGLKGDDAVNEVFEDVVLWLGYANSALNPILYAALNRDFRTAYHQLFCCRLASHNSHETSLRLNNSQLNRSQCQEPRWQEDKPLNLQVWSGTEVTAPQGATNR
Experimental: Subsequent investigations by Hughes and Coret, Proc. Soc. […] Black et al., Agents and Actions, 3, 133 (1973) and Brimblecombe et al., Fed. […] The present comparative studies were carried out using a modification of the procedure reported by Reinhardt et al., Agents and Actions, 4, 217 (1974).
The spontaneously beating right atrium was dissected free from other tissues and a silk thread (4-0) attached to each end.

[2] = tested on: gastric acid secretion (Heidenhain pouch dog); assay: Gastric antisecretory activity in the histamine-stimulated Heidenhain pouch dog; type: in vivo; conditions: for ED50: Canis lupus familiaris, 0.5 h, read-out: ED50 i.v.
Experimental: Prior to surgery, hematology and blood chemistry profiles are obtained and an assessment made as to the general health of selected female dogs. Dogs are vaccinated with Tissue Vax 5 (DHLP-Pitman-Moore) and housed in general animal quarters for four weeks' observation so incipient diseases may become apparent. Dogs are fasted with water ad libitum 24 hours prior to surgery.
Anesthesia is induced with Sodium Pentothal (Abbott) 25-30 mg/kg iv. Subsequent anesthesia is maintained with methoxyflurane (Pitman-Moore). A mid-line linea alba incision from xiphoid to umbilicus provides good exposure and ease of closure. The stomach is pulled up into the operative field, the greater curvature stretched out at multiple points and clamps placed along the selected line of incision. The pouch is made from the corpus of the stomach so that true parietal cell juice is obtained. About 30% of the corpus volume is resected. The cannula is made of light-weight,biologically-inert material such as nylon, Delrin or surgical stainless steel with dimensions and attachments after DeVito and Harkins [J. Appl. Physiol., 14, 138 (1959)]. Post-operatively, dogs are medicated with antibiotics and an analgesic. They are allowed 2-3 months for recovery. Experiments are carried out in the following way: Dogs are fasted overnight (18 hours) with water ad libitum prior to each experiment. The dogs are placed in a sling and a saphenous vein cannulated for drug administration. Histamine as the base (100 μg/kg/hr) and chlorpheniramine maleate (0.25 mg/kg/hr) are infused continuously (in a volume of 6 ml/hr) with a Harvard infusion pump.
Ninety minutes' infusion are allowed for the dogs to reach a steady state of acid output. At this time the drug or normal saline (control) is administered concomitantly with the secretagogue in a volume of 0.5 ml/kg over a 30 second period. Infusion of the secretagogue is continued and 15 minute samples of the gastic juice are taken for 4.5 hours. Each sample is measured to the nearest 0.5 ml and tritratable acidity is determined by titrating a 1 ml sample to pH 7.0 with a 0.2N NaOH, employing a fully automatic titration system (Metrohm). Titratable acid output is calculated in microequivalents by multiplying the volume is milliliters by the acid concentration in microequivalents per milliliter.
Results at peak activity after bolus intravenous administration of test compound are expressed as percent inhibition relative to control readings. Dose-response curves were constructed utilizing at least three dose levels with a minimum of three dogs at each dose level. […]

histamine H2-receptors = conditions: Black et al., Nature, 236, 385 (1972); cited from earlier work
peptic ulcer disease = conditions: Gray et al., Lancet, 1, 8001 (1977); cited from earlier work

Row | estimated dissociation constant KB ([1]; estimated by method of Furchgott, KB = concentration of antagonist/dose ratio-1, ± S.E., N = 5 preparations) | Potency Ratio (cimetidine = 1.0) ([1]; from KB, isolated guinea pig right atria, cimetidine = 1.0) | Compound | effect on histamine or dimaprit dose-response curves [1] | ED50 ([2]; intravenous dose giving 50% inhibition at time of peak activity, i.e. 30 minutes post dose, parentheses: 95% confidence limits, histamine 100 μg/kg/hr) [µmol/kg] | Potency Ratio (cimetidine = 1.0) ([2]; i.v., Heidenhain pouch dog, cimetidine = 1.0, Probit analysis) | duration of action of antisecretory activity ([2]; intravenous dog model, relative to cimetidine) | type of antagonism at histamine H2-receptors (histamine H2-receptors) | clinical effectiveness in peptic ulcer disease (peptic ulcer disease) | ED50 ([2]; iv) [µmol/kg]
1 | 0.0094 ± 0.0018 | 44 | N=C(N)Nc1nc(CSCCNc2nsnc2N)cs1 [Example 1, 3-Amino-4-{2-[(2-guanidinothiazol-4-yl)methylthio]ethylamino}-1,2,5-thiadiazole] | Parallel shifts in dose-response curves were obtained without depressing the maximal response | 0.082 | 32 | prolonged duration of action relative to cimetidine |  |  | 
2 |  |  | CNC(=S)NCCCCc1cnc[nH]1 [burimamide] |  |  |  |  | competitive antogonist |  | 
3 |  |  | CN/C(=N/CCSCc1nc[nH]c1C)NC#N [cimetidine, reference compound] | Parallel shifts in dose-response curves were obtained without depressing the maximal response |  |  |  |  | effective therapeutic agent in the treatment of peptic ulcer disease | 2.6
